# According to patent publication US6359145B1, “Imidazole compounds” (Fujisawa Pharmaceutical Co., Ltd., priority 1998, dated 2002):
# Test system: TNF-α and IL-10 amounts in plasma of LPS-injected BALB/c mice
# Assay: Endotoxin-induced Cytokine Production
# Format: in vivo
# Settings: 320 mg/kg, administered 30 minutes before LPS 0.1 mg/kg i.v.; plasma one hour after LPS; ELISA
# Description: Endotoxin-induced Cytokine Production
# BALB/c mice (male, 7 weeks old) were injected i.v. with 0.1 mg/kg of lipopolysaccharides (LPS) in a total volume of 0.2 ml saline. Heparinized blood samples were taken one hour after LPS injection and plasma was collected by centrifugation. TNF-α (inflammatory cytokine) and IL-10 (anti-inflammatory cytokine) amounts in plasma were assayed by ELISA. Test compounds were administered 30 minutes before LPS injection.
SMILES,IL-10 [pg/mL],TNF-α [ng/mL]
"NC(=O)c1cn(C(CO)CCc2ccccc2)cn1 (stereo not drawn) [Example 1, 1-(1-Hydroxy-4-phenyl-2-butyl)imidazole-4-carboxamide]",137 ± 14,3.1 ± 0.5

# Test system: not given
# Assay: not given
# Settings: not given
row,melting point,SMILES
1,92 to 95 °C,CCOC(=O)c1cccc(CCC(CO)n2cnc(C(N)=O)c2)c1 (stereo not drawn)
2,138.5 to 141 °C,COC(=O)Cc1cccc(CCC(CO)n2cnc(C(N)=O)c2)c1 (stereo not drawn)
3,97.5 to 100.5 °C,CCCCCCC(CO)n1cnc(C(N)=O)c1 (stereo not drawn)
4,160 °C,CCCC(CO)n1cnc(C(N)=O)c1 (stereo not drawn)
5,103 to 106 °C,NC(=O)c1cn(C(CO)CCc2cccc(C(F)(F)F)c2)cn1 (stereo not drawn)
6,147.5 to 149.5 °C,NC(=O)c1cn(C(CO)COc2ccccc2)cn1 (stereo not drawn)
7,138 to 141 °C,Cc1ccc(CCC(CO)n2cnc(C(N)=O)c2)cc1 (stereo not drawn)
8,127 to 129.5 °C,"NC(=O)c1cn(C(CO)CCc2ccccc2)cn1 (stereo not drawn) [Example 1, 1-(1-Hydroxy-4-phenyl-2-butyl)imidazole-4-carboxamide]"

# Further lines, the compound ahead of its results:
row,SMILES,melting point
1,N#Cc1cn(C(CO)CCc2ccccc2)cn1 (stereo not drawn),111 to 115 °C
2,Cc1ccccc1CC[C@H]([C@H](C)O)n1cnc(C(N)=O)c1,60 to 62 °C
3,C[C@H](O)[C@@H](CCc1cccc(Cl)c1Cl)n1cnc(C(N)=O)c1,70 to 75 °C
4,NC(=O)c1cn(C(CO)c2ccccc2)cn1 (stereo not drawn),147 to 149 °C
5,Nc1nc(-c2cn([C@H](CO)CCc3ccccc3)cn2)n[nH]1,80 °C (dec.)
